From ChEMBL document CHEMBL3400149, “Discovery of novel spiro 1,3,4-thiadiazolines as potent, orally bioavailable and brain penetrant KSP inhibitors” (Bioorg Med Chem, 2015)
Each block holds one compound with its values, some of them ahead of it.

Key:
[1] = target: T1, Kinesin-like protein KIF11 (Homo sapiens, UniProt P52732); test: Inhibition of KSP in human HCT116 cells assessed as phos-histone H3 level by immunofluorescent assay; type: cell-based, HCT-116
T1 sequence (P52732 whole entry): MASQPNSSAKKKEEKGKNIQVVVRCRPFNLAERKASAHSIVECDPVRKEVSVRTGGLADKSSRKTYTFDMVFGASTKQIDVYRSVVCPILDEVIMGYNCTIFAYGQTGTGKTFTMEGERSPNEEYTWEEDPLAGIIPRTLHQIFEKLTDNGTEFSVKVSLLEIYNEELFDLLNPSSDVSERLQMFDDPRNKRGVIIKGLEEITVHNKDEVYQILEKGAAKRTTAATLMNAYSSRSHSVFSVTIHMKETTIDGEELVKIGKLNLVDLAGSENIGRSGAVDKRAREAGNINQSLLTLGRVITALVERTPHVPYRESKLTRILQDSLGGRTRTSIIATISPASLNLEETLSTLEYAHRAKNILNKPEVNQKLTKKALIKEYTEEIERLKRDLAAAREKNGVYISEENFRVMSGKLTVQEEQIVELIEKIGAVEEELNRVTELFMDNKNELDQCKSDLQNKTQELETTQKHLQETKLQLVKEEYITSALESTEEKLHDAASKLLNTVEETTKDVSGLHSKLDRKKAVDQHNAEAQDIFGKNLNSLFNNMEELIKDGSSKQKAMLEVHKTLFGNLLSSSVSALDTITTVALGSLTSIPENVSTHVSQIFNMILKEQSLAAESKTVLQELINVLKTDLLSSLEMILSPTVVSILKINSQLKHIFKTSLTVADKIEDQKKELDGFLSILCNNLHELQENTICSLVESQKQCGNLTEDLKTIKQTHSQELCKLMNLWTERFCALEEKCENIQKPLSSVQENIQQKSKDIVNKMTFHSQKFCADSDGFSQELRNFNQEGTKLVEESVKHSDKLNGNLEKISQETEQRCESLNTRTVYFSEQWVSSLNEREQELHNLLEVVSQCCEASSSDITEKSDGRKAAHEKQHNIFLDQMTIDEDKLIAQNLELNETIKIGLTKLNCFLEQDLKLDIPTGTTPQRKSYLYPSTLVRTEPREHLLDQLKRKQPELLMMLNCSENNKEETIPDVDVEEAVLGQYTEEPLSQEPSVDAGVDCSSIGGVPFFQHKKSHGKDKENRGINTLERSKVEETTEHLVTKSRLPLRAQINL

[2] = Retention time of the compound; type: physicochemical
[3] = AUC in Sprague-Dawley rat at 1 mg/kg, iv; type: ADME, organism-based; parameters: dose 1 mg/kg, route intravenous; conditions: plasma
[4] = Cmax in CD1 mouse at 10 mg/kg, po; type: ADME, organism-based; parameters: dose 10 mg/kg, route oral; conditions: in vivo
[5] = Clearance in CD1 mouse at 5 mg/kg, iv; type: ADME, organism-based; parameters: dose 5 mg/kg, route intravenous; conditions: in vivo
[6] = Clearance in Sprague-Dawley rat at 1 mg/kg, iv; type: ADME, organism-based; parameters: dose 1 mg/kg, route intravenous; conditions: in vivo
[7] = Oral bioavailability in beagle dog at 10 mg/kg; type: ADME, organism-based, Canis lupus familiaris; conditions: in vivo
[8] = Cmax in Sprague-Dawley rat at 10 mg/kg, po; type: ADME, organism-based; parameters: dose 10 mg/kg, route oral; conditions: in vivo
[9] = Oral bioavailability in Sprague-Dawley rat at 10 mg/kg; type: ADME, organism-based; conditions: in vivo
[10] = Oral bioavailability in CD1 mouse at 10 mg/kg; type: ADME, organism-based; conditions: in vivo
[11] = Clearance in beagle dog at 1 mg/kg, iv; type: ADME, organism-based, Canis lupus familiaris; parameters: dose 1 mg/kg, route intravenous; conditions: in vivo
[12] = Oral bioavailability in monkey; type: ADME, organism-based, Macaca mulatta; conditions: rhesus monkey, in vivo
[13] = AUC ratio of drug uptake from brain to plasma in mouse; type: ADME, organism-based
[14] = AUC in beagle dog at 10 mg/kg, po; type: ADME, organism-based, Canis lupus familiaris; parameters: dose 10 mg/kg, route oral; conditions: plasma
[15] = Antitumor activity against human COLO205 cells xenografted in mouse assessed as tumor growth inhibition at 5 mg/kg, po q3d measured on day 35; type: functional; conditions: COLO 205, 840 h
[16] = Permeability across apical to basolateral side in human Caco2 cells; type: ADME, cell-based; conditions: Caco-2, read-out: permeability
[17] = Permeability across basolateral to apical side in human Caco2 cells; type: ADME, cell-based; conditions: Caco-2, read-out: permeability
[18] = Antitumor activity against human U373 cells xenografted in mouse assessed as tumor growth inhibition at 7.5 mg/kg, po q3d measured on day 35; type: functional, U-373MG ATCC; conditions: 840 h
[19] = AUC ratio of drug uptake from brain to plasma in rat; type: ADME
[20] = Antitumor activity against human COLO205 cells xenografted in mouse assessed as tumor growth inhibition at 7.5 mg/kg, po q3d measured on day 35; type: functional; conditions: COLO 205, 840 h
[21] = AUC in CD1 mouse at 5 mg/kg, iv; type: ADME, organism-based; parameters: dose 5 mg/kg, route intravenous; conditions: plasma
[22] = Cmax in beagle dog at 10 mg/kg, po; type: ADME, organism-based, Canis lupus familiaris; parameters: dose 10 mg/kg, route oral; conditions: in vivo
[23] = AUC in CD1 mouse at 10 mg/kg, po; type: ADME, organism-based; parameters: dose 10 mg/kg, route oral; conditions: plasma
[24] = Antitumor activity against human U373 cells xenografted in mouse assessed as tumor growth inhibition at 5 mg/kg, po q3d measured on day 35; type: functional, U-373MG ATCC; conditions: 840 h
[25] = AUC in beagle dog at 1 mg/kg, iv; type: ADME, organism-based, Canis lupus familiaris; parameters: dose 1 mg/kg, route intravenous; conditions: plasma
[26] = AUC in Sprague-Dawley rat at 10 mg/kg, po; type: ADME, organism-based; parameters: dose 10 mg/kg, route oral; conditions: plasma

Compound: CC(C)(C)C(=O)N1N=C(c2cc(F)ccc2F)SC12CCOc1ccccc12 (stereo not given)
EC50 [1]: > 1000 nM

Compound: O=C(CO)N1N=C(c2cc(F)ccc2F)SC12CCOc1ccccc12 (stereo not given)
EC50 [1]: 615 nM

Compound: CC(=O)N1N=C(c2cc(F)ccc2F)SC12CCN(C)c1ccccc12 (stereo not given)
EC50 [1]: > 1000 nM

Compound: COCC(=O)N1N=C(c2cc(F)ccc2F)SC12CCOc1ccccc12 (stereo not given)
EC50 [1]: 665 nM

Compound: NCC(=O)N1N=C(c2cc(F)ccc2F)SC12CCOc1ccccc12 (stereo not given)
EC50 [1]: > 1000 nM

Compound: CC(=O)N1CCC2(SC(c3cc(F)ccc3F)=NN2C(C)=O)c2ccccc21 (stereo not given)
EC50 [1]: > 1000 nM

Compound: CC(=O)N1N=C(c2cc(F)ccc2F)S[C@]12c1ccccc1OC[C@@H]2CCN
EC50 [1]: > 1000 nM
Retention_time [2]: 2.33 min

The next compounds have a lower EC50 [1] than those just listed; values first:

EC50 [1]: 338 nM
Compound: NCCCC(=O)N1N=C(c2cc(F)ccc2F)SC12CCOc1ccccc12 (stereo not given)

EC50 [1]: 263 nM
Compound: CN(C)CCCC(=O)N1N=C(c2cc(F)ccc2F)SC12CCOc1ccccc12 (stereo not given)

EC50 [1]: 246 nM
Compound: CC(=O)N1N=C(c2cc(F)ccc2F)SC12COc1ccccc12 (stereo not given)

EC50 [1]: 139 nM
Compound: CC(=O)N1N=C(c2cc(F)ccc2F)SC12CCOc1ccccc12 (stereo not given)

EC50 [1]: 17 nM
Compound: CC(=O)N1N=C(c2cc(F)ccc2F)S[C@@]12c1cc(Cl)ccc1OC[C@H]2CCN

EC50 [1]: 11 nM
Retention_time [2]: 5.4 min
Compound: CC(=O)N1N=C(c2cc(F)ccc2F)S[C@@]12c1ccccc1OC[C@@H]2CCN

AUC [3]: 0.8 µM·h
Cmax [4]: 1030 nM
clearance [5]: 42 mL/min/kg
clearance [6]: 49 mL/min/kg
bioavailability [7]: 44%
Cmax [8]: 220 nM
bioavailability [9]: 64%
bioavailability [10]: 87%
clearance [11]: 12 mL/min/kg
bioavailability [12]: 53%
Kp [13]: 4
AUC [14]: 6.9 µM·h
EC50 [1]: 3 nM
Papp A→B [16]: 10.6 ×10⁻⁶ cm/s
Papp B→A [17]: 11.5 ×10⁻⁶ cm/s
Kp [19]: 4
AUC [21]: 4.6 µM·h
Cmax [22]: 500 nM
AUC [23]: 7.9 µM·h
AUC [25]: 3.1 µM·h
AUC [26]: 2.5 µM·h
Compound: CC(=O)N1N=C(c2cc(F)ccc2F)S[C@@]12c1cc(F)c(F)cc1OC[C@H]2CCN
inhibition in vivo at 5 mg/kg [15]: 116%
inhibition in vivo at 7.5 mg/kg [18]: 69%
inhibition in vivo at 7.5 mg/kg [20]: 126%
inhibition in vivo at 5 mg/kg [24]: 31%
